Source: patent publication US12502434B2, “Compound comprising EZH2 inhibitor and E3 ligase binder and pharmaceutical composition for preventing or treating EZH2-associated disease comprising same as active ingredient” (DAEGU-GYEONGBUK MEDICAL INNOVATION FOUNDATION, priority 2019, dated 2025)
Like-named read-outs stand apart in the source and are kept apart here.

Target: T1, EZH2 protein in LS174T cells (Homo sapiens, UniProt Q15910)
T1 construct: endogenous in cells; host or cells: LS174T
Test: Proteolytic effect in colorectal cancer cells (Western blotting)
Assay type: cell-based
Experimental: After 72 hours of the treatment, the cells were collected and lysed using RIPA buffer (50 mM Tris, pH 7.5, 150 mM NaCl, 1% Triton X-100, 0.1% SDS, […], 0.5% deoxycholate, and protease inhibitor cocktail), followed by sonication (30 sec on/30 sec off, 5 cycles) to prepare a cell lysate.

[1] = EZH2 protein, LS174T cells, 1 μM, 72 hours
[2] = EZH2 protein, LS174T cells, 1 uM, 72 hours, Western blotting

T1 sequence (Q15910 whole entry): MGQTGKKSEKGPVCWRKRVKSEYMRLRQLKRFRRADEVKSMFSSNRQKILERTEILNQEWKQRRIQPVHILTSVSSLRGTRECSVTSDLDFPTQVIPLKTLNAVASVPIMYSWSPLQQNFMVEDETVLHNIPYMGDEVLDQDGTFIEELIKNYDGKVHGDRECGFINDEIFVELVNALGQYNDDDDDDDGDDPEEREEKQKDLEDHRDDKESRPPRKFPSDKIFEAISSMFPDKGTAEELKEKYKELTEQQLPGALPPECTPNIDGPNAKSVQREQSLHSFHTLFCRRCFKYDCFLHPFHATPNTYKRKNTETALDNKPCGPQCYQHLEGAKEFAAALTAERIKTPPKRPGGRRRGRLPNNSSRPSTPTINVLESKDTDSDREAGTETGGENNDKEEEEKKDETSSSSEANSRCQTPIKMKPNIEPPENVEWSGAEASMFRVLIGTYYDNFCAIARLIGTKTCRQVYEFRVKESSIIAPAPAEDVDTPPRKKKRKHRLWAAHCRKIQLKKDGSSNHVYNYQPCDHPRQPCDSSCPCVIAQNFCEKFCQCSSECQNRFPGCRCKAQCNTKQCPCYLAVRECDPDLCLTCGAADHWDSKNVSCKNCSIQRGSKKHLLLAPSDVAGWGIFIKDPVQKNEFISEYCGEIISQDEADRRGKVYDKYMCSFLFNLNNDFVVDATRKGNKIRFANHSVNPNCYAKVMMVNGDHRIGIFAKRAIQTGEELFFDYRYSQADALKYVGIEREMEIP
T1 sequence (O75530 whole entry partner): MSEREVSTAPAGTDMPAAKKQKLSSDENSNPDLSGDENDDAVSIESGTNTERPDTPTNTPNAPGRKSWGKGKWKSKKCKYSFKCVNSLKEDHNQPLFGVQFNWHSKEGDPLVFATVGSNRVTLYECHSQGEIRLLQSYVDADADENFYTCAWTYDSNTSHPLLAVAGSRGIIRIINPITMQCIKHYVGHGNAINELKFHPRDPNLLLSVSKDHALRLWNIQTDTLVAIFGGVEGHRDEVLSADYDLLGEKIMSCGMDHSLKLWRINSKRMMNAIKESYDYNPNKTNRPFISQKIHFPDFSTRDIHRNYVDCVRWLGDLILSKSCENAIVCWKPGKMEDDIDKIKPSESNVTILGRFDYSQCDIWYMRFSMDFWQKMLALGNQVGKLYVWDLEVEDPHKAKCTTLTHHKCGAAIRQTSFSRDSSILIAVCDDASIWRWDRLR
T1 sequence (Q15022 whole entry partner): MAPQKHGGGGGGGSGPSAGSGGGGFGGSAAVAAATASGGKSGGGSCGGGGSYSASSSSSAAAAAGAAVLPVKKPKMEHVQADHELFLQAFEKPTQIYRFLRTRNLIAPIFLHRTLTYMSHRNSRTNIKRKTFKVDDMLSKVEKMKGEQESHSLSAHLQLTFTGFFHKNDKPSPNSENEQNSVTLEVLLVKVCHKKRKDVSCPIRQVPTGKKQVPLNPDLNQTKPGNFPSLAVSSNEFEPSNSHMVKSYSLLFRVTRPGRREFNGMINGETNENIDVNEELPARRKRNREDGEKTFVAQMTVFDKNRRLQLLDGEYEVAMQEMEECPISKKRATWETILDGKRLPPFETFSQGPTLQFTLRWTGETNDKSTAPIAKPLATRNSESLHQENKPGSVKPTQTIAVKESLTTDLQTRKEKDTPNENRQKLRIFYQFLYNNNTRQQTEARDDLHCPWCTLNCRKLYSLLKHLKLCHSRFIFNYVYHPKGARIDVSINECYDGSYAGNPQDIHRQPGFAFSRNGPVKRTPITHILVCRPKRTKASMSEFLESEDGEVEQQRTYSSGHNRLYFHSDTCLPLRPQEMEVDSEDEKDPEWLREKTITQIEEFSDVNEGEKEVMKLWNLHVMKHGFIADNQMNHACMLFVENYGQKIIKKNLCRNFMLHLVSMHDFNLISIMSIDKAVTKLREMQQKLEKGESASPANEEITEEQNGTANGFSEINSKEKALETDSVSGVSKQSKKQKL

Grade (percent value of the protein degradation when treated with 1 μM) [1]	%, degradation at 1 uM [2]	SMILES	%, degradation at 1 uM	Grade (percent value of the protein degradation when treated with 1 μM)
D (<25%)	0%	CCN(c1cc(-c2ccc(CN3CCN(CC(=O)NCCOCCOCCOCCC(=O)NCCNc4cccc5c4C(=O)N(C4CCC(=O)NC4=O)C5=O)CC3)cc2)cc(C(=O)NCc2c(C)cc(C)[nH]c2=O)c1C)C1CCOCC1 (stereo not shown) [Example 4, N-((4,6-dimethyl-2-oxo-1,2-dihydropyridine-3-yl)methyl)-4′-((4-(18-((2-(2,6-dioxopiperidine-3-yl)-1,3-dioxoisoindoline-4-yl)amino)-2,15-dioxo-6,9,12-trioxa-3,16-diazaoctadecyl)piperazine-1-yl)methyl)-5-(ethyl(tetrahydro-2H-pyran-4-yl)amino)-4-methyl-[1,1′-biphenyl]-3-carboxamide]	–	–
D (<25%)	0%	CCN(c1cc(-c2ccc(CN3CCN(CC(=O)NCCOc4cccc5c4C(=O)N(C4CCC(=O)NC4=O)C5=O)CC3)cc2)cc(C(=O)NCc2c(C)cc(C)[nH]c2=O)c1C)C1CCOCC1 (stereo not shown) [Example 5, N-((4,6-dimethyl-2-oxo-1,2-dihydropyridine-3-yl)methyl)-4′-((4-(2-((2-((2-(2,6-dioxopiperidine-3-yl)-1,3-dioxoisoindoline-4-yl)oxy)ethyl)amino)-2-oxoethyl)piperazine-1-yl)methyl)-5-(ethyl(tetrahydro-2H-pyran-4-yl)amino)-4-methyl-[1,1′-biphenyl]-3-carboxamide]	–	–
B (50-75%)	61.64%	CCN(c1cc(-c2ccc(CN3CCN(CC(=O)NCCCCCCNc4cccc5c4C(=O)N(C4CCC(=O)NC4=O)C5=O)CC3)cc2)cc(C(=O)NCc2c(C)cc(C)[nH]c2=O)c1C)C1CCOCC1 (stereo not shown) [Example 6, N-((4,6-dimethyl-2-oxo-1,2-dihydropyridine-3-yl)methyl)-4′-((4-(2-((6-((2-(2,6-dioxopiperidine-3-yl)-1,3-dioxoisoindoline-4-yl)amino)hexyl)amino)-2-oxoethyl)piperazine-1-yl)methyl)-5-(ethyl(tetrahydro-2H-pyran-4-yl)amino)-4-methyl-[1,1′-biphenyl]-3-carboxamide]	–	–
D (<25%)	2.91%	CCN(c1cc(-c2ccc(CN3CCN(CC(=O)NCCCCCCOc4cccc5c4C(=O)N(C4CCC(=O)NC4=O)C5=O)CC3)cc2)cc(C(=O)NCc2c(C)cc(C)[nH]c2=O)c1C)C1CCOCC1 (stereo not shown) [Example 8, N-((4,6-dimethyl-2-oxo-1,2-dihydropyridine-3-yl)methyl)-4′-((4-(2-((6-((2-(2,6-dioxopiperidine-3-yl)-1,3-dioxoisoindoline-4-yl)oxy)hexyl)amino)-2-oxoethyl)piperazine-1-yl)methyl)-5-(ethyl(tetrahydro-2H-pyran-4-yl)amino)-4-methyl-[1,1′-biphenyl]-3-carboxamide]	–	–
D (<25%)	0%	CCN(c1cc(-c2ccc(CN3CCN(CCCCCCCOc4cccc5c4C(=O)N(C4CCC(=O)NC4=O)C5=O)CC3)cc2)cc(C(=O)NCc2c(C)cc(C)[nH]c2=O)c1C)C1CCOCC1 (stereo not shown) [Example 10, N-((4,6-dimethyl-2-oxo-1,2-dihydropyridine-3-yl)methyl)-4′-((4-(7-((2-(2,6-dioxopiperidine-3-yl)-1,3-dioxoisoindoline-4-yl)oxy)heptyl)piperazine-1-yl)methyl)-5-(ethyl(tetrahydro-2H-pyran-4-yl)amino)-4-methyl-[1,1′-biphenyl]-3-carboxamide]	–	–
D (<25%)	12.87%	CCN(c1cc(-c2ccc(CN3CCN(CCCCCCCNc4cccc5c4C(=O)N(C4CCC(=O)NC4=O)C5=O)CC3)cc2)cc(C(=O)NCc2c(C)cc(C)[nH]c2=O)c1C)C1CCOCC1 (stereo not shown) [Example 11, N-((4,6-dimethyl-2-oxo-1,2-dihydropyridine-3-yl)methyl)-4′-((4-(7-((2-(2,6-dioxopiperidine-3-yl)-1,3-dioxoisoindoline-4-yl)amino)heptyl)piperazine-1-yl)methyl)-5-(ethyl(tetrahydro-2H-pyran-4-yl)amino)-4-methyl-[1,1′-biphenyl]-3-carboxamide]	–	–
C (25-50%)	29.35%	CCN(c1cc(-c2ccc(CN3CCN(C(=O)CNCCCCNc4cccc5c4C(=O)N(C4CCC(=O)NC4=O)C5=O)CC3)cc2)cc(C(=O)NCc2c(C)cc(C)[nH]c2=O)c1C)C1CCOCC1 (stereo not shown) [Example 13, N-((4,6-dimethyl-2-oxo-1,2-dihydropyridine-3-yl)methyl)-4′-((4-((4-((2-(2,6-dioxopiperidine-3-yl)-1,3-dioxoisoindoline-4-yl)amino)butyl)glycyl)piperazine-1-yl)methyl)-5-(ethyl(tetrahydro-2H-pyran-4-yl)amino)-4-methyl-[1,1′-biphenyl]-3-carboxamide]	–	–
D (<25%)	6.21%	CCN(c1cc(-c2ccc(CN3CCN(C(=O)CNCCCCCCNc4cccc5c4C(=O)N(C4CCC(=O)NC4=O)C5=O)CC3)cc2)cc(C(=O)NCc2c(C)cc(C)[nH]c2=O)c1C)C1CCOCC1 (stereo not shown) [Example 14, N-((4,6-dimethyl-2-oxo-1,2-dihydropyridine-3-yl)methyl)-4′-((4-((6-((2-(2,6-dioxopiperidine-3-yl)-1,3-dioxoisoindoline-4-yl)amino)hexyl)glycyl)piperazine-1-yl)methyl)-5-(ethyl(tetrahydro-2H-pyran-4-yl)amino)-4-methyl-[1,1′-biphenyl]-3-carboxamide]	–	–

Continued, compound first:

SMILES	Grade (percent value of the protein degradation when treated with 1 μM) [1]	%, degradation at 1 uM [2]	%, degradation at 1 uM	Grade (percent value of the protein degradation when treated with 1 μM)
CCN(c1cc(-c2ccc(CN3CCN(CC(=O)NCCNc4cccc5c4C(=O)N(C4CCC(=O)NC4=O)C5=O)CC3)cc2)cc(C(=O)NCc2c(C)cc(C)[nH]c2=O)c1C)C1CCOCC1 (stereo not shown) [Example 1, N-((4,6-dimethyl-2-oxo-1,2-dihydropyridine-3-yl)methyl)-4′-((4-(2-((2-((2-(2,6-dioxopiperidine-3-yl)-1,3-dioxoisoindoline-4-yl)amino)ethyl)amino)-2-oxoethyl)piperazine-1-yl)methyl)-5-(ethyl(tetrahydro-2H-pyran-4-yl)amino)-4-methyl-[1,1′-biphenyl]-3-carboxamide]	D (<25%)	8.15%	–	–
CCN(c1cc(-c2ccc(CN3CCN(CCCCCNc4cccc5c4C(=O)N(C4CCC(=O)NC4=O)C5=O)CC3)cc2)cc(C(=O)NCc2c(C)cc(C)[nH]c2=O)c1C)C1CCOCC1 (stereo not shown) [Example 2, N-((4,6-dimethyl-2-oxo-1,2-dihydropyridine-3-yl)methyl)-4′-((4-(5-((2-(2,6-dioxopiperidine-3-yl)-1,3-dioxoisoindoline-4-yl)amino)pentyl)piperazine-1-yl)methyl)-5-(ethyl(tetrahydro-2H-pyran-4-yl)amino)-4-methyl-[1,1′-biphenyl]-3-carboxamide]	D (<25%)	18.10%	–	–
CCN(c1cc(-c2ccc(CN3CCN(CC(=O)NCCCCNc4cccc5c4C(=O)N(C4CCC(=O)NC4=O)C5=O)CC3)cc2)cc(C(=O)NCc2c(C)cc(C)[nH]c2=O)c1C)C1CCOCC1 (stereo not shown) [Example 3, N-((4,6-dimethyl-2-oxo-1,2-dihydropyridine-3-yl)methyl)-4′-((4-(2-((4-((2-(2,6-dioxopiperidine-3-yl)-1,3-dioxoisoindoline-4-yl)amino)butyl)amino)-2-oxoethyl)piperazine-1-yl)methyl)-5-(ethyl(tetrahydro-2H-pyran-4-yl)amino)-4-methyl-[1,1′-biphenyl]-3-carboxamide]	D (<25%)	13.61%	–	–
CCN(c1cc(-c2ccc(CN3CCN(CC(=O)NCCCCOc4cccc5c4C(=O)N(C4CCC(=O)NC4=O)C5=O)CC3)cc2)cc(C(=O)NCc2c(C)cc(C)[nH]c2=O)c1C)C1CCOCC1 (stereo not shown) [Example 7, N-((4,6-dimethyl-2-oxo-1,2-dihydropyridine-3-yl)methyl)-4′-((4-(2-((4-((2-(2,6-dioxopiperidine-3-yl)-1,3-dioxoisoindoline-4-yl)oxy)butyl)amino)-2-oxoethyl)piperazine-1-yl)methyl)-5-(ethyl(tetrahydro-2H-pyran-4-yl)amino)-4-methyl-[1,1′-biphenyl]-3-carboxamide]	–	–	22.74%	D (key: A: >75%; B: 50-75%; C: 25-50%; D: <25%)
CCN(c1cc(-c2ccc(CN3CCN(C(=O)CNCCNc4cccc5c4C(=O)N(C4CCC(=O)NC4=O)C5=O)CC3)cc2)cc(C(=O)NCc2c(C)cc(C)[nH]c2=O)c1C)C1CCOCC1 (stereo not shown) [Example 12, N-((4,6-dimethyl-2-oxo-1,2-dihydropyridine-3-yl)methyl)-4′-((4-((2-((2-(2,6-dioxopiperidine-3-yl)-1,3-dioxoisoindoline-4-yl)amino)ethyl)glycyl)piperazine-1-yl)methyl)-5-(ethyl(tetrahydro-2H-pyran-4-yl)amino)-4-methyl-[1,1′-biphenyl]-3-carboxamide]	D (<25%)	16.89%	–	–
CCN(c1cc(-c2ccc(CN3CCN(CC(=O)NCCCOCCNc4cccc5c4C(=O)N(C4CCC(=O)NC4=O)C5=O)CC3)cc2)cc(C(=O)NCc2c(C)cc(C)[nH]c2=O)c1C)C1CCOCC1 (stereo not shown) [Example 15, N-((4,6-dimethyl-2-oxo-1,2-dihydropyridine-3-yl)methyl)-4′-((4-(2-((3-(2-((2-(2,6-dioxopiperidine-3-yl)-1,3-dioxoisoindoline-4-yl)amino)ethoxy)propyl)amino)-2-oxoethyl)piperazine-1-yl)methyl)-5-(ethyl(tetrahydro-2H-pyran-4-yl)amino)-4-methyl-[1,1′-biphenyl]-3-carboxamide]	D (<25%)	0%	–	–
